Reference: patent US20250076312A1, “BIOMARKERS FOR THE TREATMENT OF INTERSTITIAL LUNG DISEASE” (Lung Therapeutics, LLC, priority 2021, published 2025)
Square brackets hold non-standard residues; d marks the D form. Ends that are not written are not given here.

Assays:
Format in all cases: cell-based, human
[1] = tested on: CXCL7; experiment: CXCL7 ELISA in supernatant of healthy control lung macrophages; conditions: FIG. 14
Text: (§1) Lung macrophages were either left untreated or treated with Var55. Each line represents a biological replicate of lung macrophages from an individual control subject (triangles) or an individual with IPF (circles).
(§2) Lung macrophages were collected from humans with IPF or healthy controls and cultured in vitro. Lung macrophages were either left untreated or treated with Var55. Following treatment, supernatants from the lung macrophage cultures were collected and analyzed for CXCL7 expression by ELISA.

[2] = tested on: CXCL7; experiment: CXCL7 ELISA in supernatant of IPF lung macrophages; conditions: FIG. 14
Text: as §1, §2

[3] = tested on: pSMAD2/3; experiment: SMAD2/3 phosphorylation in IPF fibroblasts; conditions: 10 μM, compared to 1% DMSO vehicle or DMEM controls, FIG. 7A
Protocol: IPF fibroblasts were treated with DMEM, 1% DMSO vehicle, CSP-7 (10 μM), Var55 (10 μM), pirfenidone (500 μM), or nintedanib (100 nM). SMAD2/3 phosphorylation was determined by Western blot 24 hours following treatment. […] IPF epithelial cells were treated with DMEM (control), Var55 (100 μM), nintedanib (100 nM), control peptide 1 (CP1, 100 μM), or control peptide 2 (CP2, 100 μM). SMAD2/3 phosphorylation was determined by Western blot 24 hours following treatment. Phosphorylated SMAD2/3 protein levels were determined by normalizing to total SMAD2/3 protein (FIG. 7A and FIG. 7B). Primary lung fibroblasts from IPF patients were treated with 1% DMSO vehicle, CSP-7 (10 μM), Var55 (10 μM), pirfenidone (500 μM), or nintedanib (100 nM). SMAD2/3 phosphorylation was measured in IPF fibroblasts by a multiplex assay or Western blot analysis and phosphorylated SMAD2/3 was normalized to total SMAD2/3 protein.

[4] = tested on: pSMAD2/3; experiment: SMAD2/3 phosphorylation in IPF epithelial cells; conditions: 100 μM, compared to DMEM control, FIG. 7B
Protocol: IPF fibroblasts were treated with DMEM, 1% DMSO vehicle, CSP-7 (10 μM), Var55 (10 μM), pirfenidone (500 μM), or nintedanib (100 nM). SMAD2/3 phosphorylation was determined by Western blot 24 hours following treatment. […] IPF epithelial cells were treated with DMEM (control), Var55 (100 μM), nintedanib (100 nM), control peptide 1 (CP1, 100 μM), or control peptide 2 (CP2, 100 μM). SMAD2/3 phosphorylation was determined by Western blot 24 hours following treatment. Phosphorylated SMAD2/3 protein levels were determined by normalizing to total SMAD2/3 protein (FIG. 7A and FIG. 7B).
Additional experiments were performed to determine whether phosphorylation of SMAD2/3 could be used as a biomarker associated with Var55 treatment. Epithelial cells from IPF patients were treated with DMEM (control), Var55 (100 μM), nintedanib (100 nM), control peptide 1 (CP1, 100 μM), or control peptide 2 (CP2, 100 μM). SMAD2/3 phosphorylation was measured in […] by a multiplex assay or Western blot analysis and phosphorylated SMAD2/3 was normalized to total SMAD2/3 protein.

[5] = tested on: LDH activity
Protocol: PCLSs were either untreated or treated with CSP-7 (10 μM or 100 μM), control peptide (CP, 100 μM), TGFβ (2 ng/mL), or pirfenidone (Pirf, 500 μM) and nintedanib (Nin, 100 nM). LDH activity was measured in the supernatant of IPF PCLSs on day 2 (left panel) or day 4 (right panel) following treatment. […] LDH activity was measured in the supernatant of IPF PCLSs on day 2 (left panel) or day 4 (right panel) following treatment.
LDH activity was also examined in the supernatants of IPF PCLSs either untreated (UT) or treated with CSP-7 (10 μM or 100 μM), control peptide (CP, 100 μM), TGFβ (2 ng/mL), or pirfenidone (Pirf, 500 μM) and nintedanib (Nin, 100 nM). LDH activity was measured using an LDH assay (Sigma-Aldrich, Cat No MAK066).

Ac-aaEGKASFTTFTVTKGSaa-NH2 (Ac-[dA][dA]EGKASFTTFTVTKGS[dA][dA]-NH2; SMILES CC(=O)N[C@H](C)C(=O)N[C@H](C)C(=O)N[C@@H](CCC(=O)O)C(=O)NCC(=O)N[C@@H](CCCCN)C(=O)N[C@@H](C)C(=O)N[C@@H](CO)C(=O)N[C@@H](Cc1ccccc1)C(=O)N[C@H](C(=O)N[C@H](C(=O)N[C@@H](Cc1ccccc1)C(=O)N[C@H](C(=O)N[C@H](C(=O)N[C@H](C(=O)N[C@@H](CCCCN)C(=O)NCC(=O)N[C@@H](CO)C(=O)N[C@H](C)C(=O)N[C@H](C)C(N)=O)[C@@H](C)O)C(C)C)[C@@H](C)O)[C@@H](C)O)[C@@H](C)O) [Var55]
CXCL7 in the supernatant [1]: significant reduction
CXCL7 in the supernatant [2]: significant reduction
phosphorylation of SMAD2/3 normalized to total SMAD2/3 [3]: no difference
phosphorylation of SMAD2/3 normalized to total SMAD2/3 [4]: reduced phosphorylation

FTTFTVT [CSP-7, FTTFTVT]
LDH activity in PCLS supernatant [5]: slight reduction
